Reference: patent US20250289807A1, “Inhibitors of ROCK2” (Graviton Bioscience BV, priority 2022, published 2025)
Values after ≈ are worked out from the molar mass of the structure shown.

Experiments:
ROCK1 = ROCK1 (Homo sapiens (Human), UniProt Q13464); test: ADP-Glo kinase assay, ROCK1; type: biochemical; conditions: 10 μM ATP, 170 μM S6K substrate, 120 min
Experimental: (§1) ADP-Glo kinase assay (Promega). The ADP-Glo™ Kinase Assay is a luminescent ADP detection assay that allows measurement of kinase activity based on the amount of ADP produced during a kinase reaction. The kinase reaction is performed in the presence of ATP, S6K substrate ([…]) and the ROCK kinase in the appropriate Kinase Reaction Buffer (1×). Upon termination of the reaction, the unconsumed ATP is depleted by addition of ADP-Glo™ Reagent. Next, Kinase Detection Reagent is added to convert ADP to ATP and allow the newly synthesized ATP to be measured using a luciferase/luciferin reaction. The luminescence is proportional to the produced ADP and consequently to the kinase activity. The ADP-Glo™ Kinase Assay was performed in a 384 well plate format as follows.
(§2) Kinase Detection Reagent Preparation: The Kinase Detection Buffer was thawed at room temperature (RT). If a precipitate was present, the buffer was incubated at 37° C. with constant swirling for 15 minutes to dissolve the precipitate or the precipitate was removed from the buffer by carefully pipetting the supernatant from the bottle. After equilibrating both the Kinase Detection Buffer and Kinase Detection Substrate to room temperature, the entire volume of Kinase Detection Buffer was transferred into the bottle containing Kinase Detection Substrate to reconstitute the lyophilized substrate, followed by gentile mixing to obtain a homogeneous solution.
(§3) Kinase Reaction Buffer Preparation: Kinase reaction buffer was prepared freshly before each experiment.
(§4) ADP-Glo Reagents Preparation. Three mixes were prepared on ice before running the assay: • Mix 1—containing ROCK1 or ROCK2 in Kinase Reaction Buffer (1×) • Mix 2—containing S6K peptide in Kinase Reaction Buffer (1×) • Mix 3—containing ATP in Kinase Reaction Buffer (1×)
(§5) The ratios of reagent volumes in the assay were 1:1:2 of kinase reaction to ADP-Glo™ Reagent to Kinase Detection Reagent. For 384-well plates, volumes were: 5 μl of kinase reaction, 5 μl of ADP-Glo™ Reagent and 10 μl of Kinase Detection Reagent.
(§6) Generating a standard curve for conversion of ATP to ADP. To estimate the amount of ADP produced in the kinase reaction, a standard curve that represents the luminescence corresponding to the conversion of ATP to ADP was prepared based on the ATP concentration used in the kinase reaction. These conversion curves represent the amounts of ATP and ADP available in a reaction at the specified conversion percentage ranging from 100% conversion to 0% conversion. The standard samples used to generate an ATP-to-ADP conversion curve are created by combining the appropriate volumes of ATP and ADP stock solutions.
(§7) Each plate contained a positive control (1 μM Comp. A for ROCK2 and 1 μM RKI-1447 for ROCK1); a vehicle control (1% DMSO); a blank control (kinase reaction buffer (1×)); a low control (substrate and ATP, without kinase); and an autophosphorylation control (kinase and ATP, without substrate). Test and reference compounds were diluted in 100% DMSO to obtain 10 mM stock solutions. Each compound was tested in 8-serial dilutions in duplicate. The final concentration of DMSO in the reaction was 1% (up to 50 nL).
(§8) 5 μl/well Kinase Reaction Buffer (1×) was dispensed to blank control wells. 2 μl/well Kinase Reaction Buffer (1×) was dispensed to control without protein (low control) and without substrate (autophosphorylation) wells. The plate was sealed with adhesive film followed by a short spin (1 min, 1000 rpm).
(§9) 2 μl/well kinase (2.5×) solution was dispensed into relevant wells of the assay plate. The plate was sealed with adhesive film followed by a short spin (1 min, 1000 rpm).
(§10) The plate was sealed with adhesive film followed by a short spin (1 min, 1000 rpm).
(§11) 1 μl/well ATP (5×) solution was dispensed into relevant wells of the assay plate. The final volume of reaction was […]. The plate was sealed with adhesive film followed by a short spin (1 min, 1000 rpm).

ROCK2 = ROCK2 (Homo sapiens (Human), UniProt O75116); test: ADP-Glo kinase assay, ROCK2; type: biochemical; conditions: 40 μM ATP, 170 μM S6K substrate, 120 min
Experimental: as §1, §2, §3, §4, §5, §6, §7, §8, §9, §10, §11

[1] = tested on: human lung fibroblast MRC-5 cells; test: Col1A protein secretion in MRC-5 supernatants (ELISA); type: cell-based; conditions: MRC-5, TGF-β1 2.5 ng/mL, 48 hours, FIG. 6
Experimental: (§12) ROCKs are activated by small GTPase Rho in response to a variety of profibrotic signals and regulate cytoskeletal dynamics, activation of different down-stream intracellular targets and expression of key profibrotic genes, such as fibronectin, smooth muscle actin (α-SMA) and collagen 3 (Col3A1).
(§13) In these studies, human lung fibroblast MRC-5 cells were acquired from American Type Culture Collection (ATCC) and cultured in MEM supplemented with 10% fetal bovine serum. The cells were seeded in 24-well cell culture plates at 50,000/mL/well. On the following day, the cells were starved in MEM containing 0.5% FBS for overnight. […] Cellular mRNA was isolated and mRNA expression of indicated genes (fibronectin, αSMA and col3A) was analyzed by RT-PCR (FIG. 5). Secreted pro-collagen 1a (Col1A1) in supernatants was measured by ELISA (FIG. 6).

Kinetic solubility = type: physicochemical; conditions: kinetic from dmso stock
[2] = tested on: IL-17 secretion in human CD4+ T cells; test: IL-17 secretion in Th17-skewed human CD4+ T cells (ELISA); type: cell-based; conditions: anti-CD3/28 mAbs, IL-1β (50 ng/mL) and TGF-β (5 ng/mL), 48 hours
Experimental: In this study, peripheral blood CD4^+ T cells were treated with the indicated doses of the ROCK2 inhibitors and then stimulated by anti-CD3/28 mAbs, IL-1β (50 ng/mL) and TGF-β (5 ng/mL) for 48 hours. The supernatants were analyzed for IL-17 by ELISA. One representative of three different experiments is shown.

[3] = tested on: pCofilin in human CD4+ T cells; test: pCofilin in human CD4+ T cells (Western Blot); type: cell-based; conditions: stimulated 2 hours, FIG. 4
Experimental: (§14) In these studies, peripheral blood CD4^+ T cells were treated with indicated doses of inhibitors and then stimulated by anti-CD3/28 mAbs, IL-1β (50 ng/mL) and TGF-β (5 ng/mL) for 2 hours. The cell lysates were prepared and analyzed by Western Blot. One representative of three different experiments is shown.

[4] = tested on: Human subcutaneous adipocytes; test: Adipogenesis in primary human adipocytes (Oil Red staining); type: cell-based; conditions: adipogenic cocktail, 10 days, Oil Red absorbance, FIG. 7
Experimental: Adipogenesis is a multi-step complex process, progressing from precursor stem cells to adipocytes that synthesize and store fat. […] ROCKs have been implicated in regulation of adipocyte differentiation, however the isoform-specific contribution to adipogenesis and other metabolic pathways is not well characterized. […] In this study, Human subcutaneous adipocytes were grown to confluence before induction to differentiation by adipogenic cocktail (0.1 μM dexamethasone, 1 μM insulin, 200 μM indomethacin, 250 μM isobutyl methylxanthine (IBMX)) in the presence of indicated concentrations of Ex. 1 or Ex. 2 for 10 days. Differentiated cells were stained by Oil Red which was extracted by isopropanol and measured by absorbance at 492 nm.

[5] = tested on: STAT3 phosphorylation in human CD4+ T cells; test: STAT3 phosphorylation in Th17-skewed human CD4+ T cells (Western Blot); type: cell-based; conditions: stimulated 2 hours, FIG. 3
Experimental: as §14

[6] = tested on: human lung fibroblast MRC-5 cells; test: TGF-β-induced pro-fibrogenic gene expression in MRC-5 fibroblasts (RT-PCR); type: cell-based; conditions: MRC-5, TGF-β1 2.5 ng/mL, 48 hours, FIG. 5
Experimental: as §12, §13

[7] = tested on: human adipose-derived stem cells; conditions: cited from earlier work
[8] = tested on: mouse 3T3-L1 pre-adipocytes; conditions: cited from earlier work

ROCK2, sequence (O75116 whole entry): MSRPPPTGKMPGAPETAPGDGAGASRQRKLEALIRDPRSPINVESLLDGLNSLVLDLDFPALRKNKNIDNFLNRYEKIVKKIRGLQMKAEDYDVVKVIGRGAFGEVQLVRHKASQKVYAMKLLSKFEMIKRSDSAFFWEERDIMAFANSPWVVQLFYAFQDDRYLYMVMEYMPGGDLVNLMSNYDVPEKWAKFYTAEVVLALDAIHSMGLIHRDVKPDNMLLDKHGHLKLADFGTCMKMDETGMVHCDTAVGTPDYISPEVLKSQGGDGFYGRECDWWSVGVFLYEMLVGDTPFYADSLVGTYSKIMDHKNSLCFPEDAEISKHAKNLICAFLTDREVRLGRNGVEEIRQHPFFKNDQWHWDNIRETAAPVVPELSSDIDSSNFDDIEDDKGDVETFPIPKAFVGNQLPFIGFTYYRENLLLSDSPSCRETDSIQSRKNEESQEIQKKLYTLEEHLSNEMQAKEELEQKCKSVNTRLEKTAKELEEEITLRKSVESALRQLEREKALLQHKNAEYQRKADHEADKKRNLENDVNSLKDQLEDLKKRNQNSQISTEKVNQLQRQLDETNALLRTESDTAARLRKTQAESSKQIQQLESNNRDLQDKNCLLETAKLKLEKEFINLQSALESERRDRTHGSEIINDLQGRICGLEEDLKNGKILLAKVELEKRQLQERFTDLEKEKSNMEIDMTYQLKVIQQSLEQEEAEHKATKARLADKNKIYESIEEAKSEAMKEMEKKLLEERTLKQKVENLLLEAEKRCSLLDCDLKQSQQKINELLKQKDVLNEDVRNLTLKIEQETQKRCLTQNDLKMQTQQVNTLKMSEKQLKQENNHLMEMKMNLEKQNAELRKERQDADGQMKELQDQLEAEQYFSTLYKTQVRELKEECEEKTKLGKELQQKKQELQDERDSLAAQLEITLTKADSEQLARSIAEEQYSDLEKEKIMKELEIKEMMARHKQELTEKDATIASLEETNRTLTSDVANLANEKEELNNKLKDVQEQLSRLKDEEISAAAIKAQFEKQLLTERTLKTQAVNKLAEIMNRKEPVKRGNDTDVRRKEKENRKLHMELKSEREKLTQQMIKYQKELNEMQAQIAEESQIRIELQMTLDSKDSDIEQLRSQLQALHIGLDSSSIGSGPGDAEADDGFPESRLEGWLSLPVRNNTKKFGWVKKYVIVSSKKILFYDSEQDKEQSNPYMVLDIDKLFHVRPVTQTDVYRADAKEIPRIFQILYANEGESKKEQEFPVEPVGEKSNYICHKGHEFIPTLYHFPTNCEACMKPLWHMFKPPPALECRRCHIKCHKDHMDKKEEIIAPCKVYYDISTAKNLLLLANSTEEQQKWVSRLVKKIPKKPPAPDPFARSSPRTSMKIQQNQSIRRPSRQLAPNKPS
ROCK1, sequence (Q13464 whole entry): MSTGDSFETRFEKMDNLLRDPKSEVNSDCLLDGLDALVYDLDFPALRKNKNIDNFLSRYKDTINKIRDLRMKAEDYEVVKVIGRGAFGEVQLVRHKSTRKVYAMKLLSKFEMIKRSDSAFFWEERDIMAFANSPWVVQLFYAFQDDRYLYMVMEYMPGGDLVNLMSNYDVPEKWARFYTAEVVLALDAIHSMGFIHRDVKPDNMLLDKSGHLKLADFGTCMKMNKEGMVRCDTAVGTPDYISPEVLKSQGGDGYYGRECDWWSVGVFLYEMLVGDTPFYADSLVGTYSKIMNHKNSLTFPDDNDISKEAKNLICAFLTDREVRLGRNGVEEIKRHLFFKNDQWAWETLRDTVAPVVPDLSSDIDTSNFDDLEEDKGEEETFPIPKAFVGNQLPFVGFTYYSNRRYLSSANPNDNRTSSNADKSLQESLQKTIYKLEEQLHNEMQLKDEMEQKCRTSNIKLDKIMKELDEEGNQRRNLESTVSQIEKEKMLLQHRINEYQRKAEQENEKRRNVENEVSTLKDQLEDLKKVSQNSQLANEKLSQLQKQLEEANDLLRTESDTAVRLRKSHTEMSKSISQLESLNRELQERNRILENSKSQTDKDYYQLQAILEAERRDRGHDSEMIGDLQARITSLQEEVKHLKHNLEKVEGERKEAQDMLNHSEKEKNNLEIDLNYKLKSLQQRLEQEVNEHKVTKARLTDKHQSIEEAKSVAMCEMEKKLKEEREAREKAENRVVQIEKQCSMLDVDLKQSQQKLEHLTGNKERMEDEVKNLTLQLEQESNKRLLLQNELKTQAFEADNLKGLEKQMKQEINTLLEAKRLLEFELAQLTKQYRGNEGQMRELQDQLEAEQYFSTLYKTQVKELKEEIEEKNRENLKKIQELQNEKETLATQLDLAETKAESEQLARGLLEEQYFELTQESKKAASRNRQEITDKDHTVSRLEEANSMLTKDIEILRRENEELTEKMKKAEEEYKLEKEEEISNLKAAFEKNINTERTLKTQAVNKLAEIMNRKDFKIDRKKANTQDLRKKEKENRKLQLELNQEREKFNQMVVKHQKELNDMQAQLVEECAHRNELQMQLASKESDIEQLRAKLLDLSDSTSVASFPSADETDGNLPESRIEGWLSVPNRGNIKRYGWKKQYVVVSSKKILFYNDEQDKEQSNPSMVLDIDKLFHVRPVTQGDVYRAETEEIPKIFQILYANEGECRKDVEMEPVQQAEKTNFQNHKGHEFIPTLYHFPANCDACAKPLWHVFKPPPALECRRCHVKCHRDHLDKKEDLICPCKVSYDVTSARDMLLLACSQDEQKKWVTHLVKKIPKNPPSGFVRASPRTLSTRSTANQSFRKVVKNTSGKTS

Compound	IC50 (ROCK1) [nM]	IC50 (ROCK2) [nM]	further results
Cn1c(C(=O)N2CC(F)(F)C2)cc2ccc(-c3nccc(Nc4ccc(-c5cnc[nH]5)cc4)n3)cc21 [Example 1, 2-[2-(3,3-difluoroazetidine-1-carbonyl)-1-methyl-1H-indol-6-yl]-N-[4-(1H-imidazol-5-yl)phenyl]pyrimidin-4-amine]	> 50000		Col1A protein production in supernatants [1]: down-regulate dose-dependently; solubility kinetic (Kinetic solubility): 2.2 µg/mL (≈ 4.53 µM); EC50 [2]: 838 nM; pCofilin [3]: down-regulate pCofilin; adipogenesis [4]: down-regulate adipogenesis in a dose-dependent manner; STAT3 phosphorylation induced by Th17-skewing activation [5]: down-regulate STAT3 phosphorylation; TGF-β-induced Col3A1 gene expression [6]: down-regulate dose-dependently; TGF-β-induced fibronectin gene expression [6]: down-regulate dose-dependently; TGF-β-induced α-SMA gene expression [6]: down-regulate dose-dependently
C[C@H](NC(=O)c1cc2ccc(-c3nccc(Nc4ccc(-c5cnc[nH]5)cc4)n3)cc2n1CCN(C)C)C(F)(F)F [Example 8]	10700		
CN(C)CCn1c(C(=O)N2CCC(F)(F)C2)cc2ccc(-c3nccc(Nc4ccc(-c5cn[nH]n5)cc4)n3)cc21 [Example 18]	23200		
CN(C)C(=O)Cn1c(C(=O)N2CC(F)(F)C2)cc2ccc(-c3nccc(Nc4ccc(-c5cnc[nH]5)cc4)n3)cc21 [Example 4]	> 50000		
O=C(c1cc2c(s1)CN(c1nccc(Nc3ccc(-c4cnc[nH]4)cc3)n1)CC2)N1CC2C(C1)C2(F)F (centres unmarked) [Example 23]	8910	334	
O=C(c1nc2ccc(-c3nccc(Nc4ccc(-c5cn[nH]n5)cc4)n3)cc2[nH]1)N1CC(F)(F)C1 [Example 22]	25200		
CC(C)NC(=O)COc1cccc(-c2nc(Nc3ccc4[nH]ncc4c3)c3ccccc3n2)c1 [KD025]			adipocyte differentiation [7]: down-regulated adipocyte differentiation; adipocyte differentiation [8]: down-regulated adipocyte differentiation
Cn1c(C(=O)N2CC(F)(F)C2)cc2ccc(-c3nccc(Nc4ccc(-c5c[nH]nn5)cc4)n3)cc21 [Example 2, 2-[2-(3,3-difluoroazetidine-1-carbonyl)-1-methyl-1H-indol-6-yl]-N-[4-(1H-1,2,3-triazol-4-yl)phenyl]pyrimidin-4-amine]	> 50000		Col1A protein production in supernatants [1]: down-regulate dose-dependently; solubility kinetic (Kinetic solubility): 2.69 µg/mL (≈ 5.53 µM); EC50 [2]: 764 nM; pCofilin [3]: down-regulate pCofilin; adipogenesis [4]: down-regulate adipogenesis in a dose-dependent manner; STAT3 phosphorylation induced by Th17-skewing activation [5]: down-regulate STAT3 phosphorylation; TGF-β-induced Col3A1 gene expression [6]: down-regulate dose-dependently; TGF-β-induced fibronectin gene expression [6]: down-regulate dose-dependently; TGF-β-induced α-SMA gene expression [6]: down-regulate dose-dependently
O=C(c1cc2c(s1)CN(c1nccc(Nc3ccc(-c4cnc[nH]4)cc3)n1)CC2)N1CCC(F)(F)C1 [Example 25]	6850		

Further lines, with some results ahead:

IC50 (ROCK1) [nM]	IC50 (ROCK2) [nM]	Compound	further results
746		C[C@H](NC(=O)c1cc2ccc(-c3nccc(Nc4ccc(-c5cnc[nH]5)cc4)n3)cc2n1C)C(F)(F)F [Example 9]	
1220	207	O=C(c1cc2c(s1)CN(c1nccc(Nc3ccc(-c4cnn[nH]4)cc3)n1)CC2)N1CC2C(C1)C2(F)F (centres unmarked) [Example 24]	
4000		C[C@H](NC(=O)c1cc2ccc(-c3nccc(Nc4ccc(-c5cnc[nH]5)cc4)n3)cc2n1CC1COC1)C(F)(F)F [Example 10]	
2280	10000	Cn1c(C(=O)N2CCCC2)cc2ccc(-c3nccc(Nc4ccc(-c5cnc[nH]5)cc4)n3)cc21 [Example 12]	
792		Cn1c(C(=O)N2CCCC2)cc2ccc(-c3nccc(Nc4ccc(-c5cn[nH]n5)cc4)n3)cc21 [Example 16]	
2730	961	O=C(c1cc2c(s1)CN(c1nccc(Nc3ccc(-c4c[nH]nn4)cc3)n1)CC2)N1CC(F)(F)C1 [Example 3′, 2-[2-(3,3-difluoroazetidine-1-carbonyl)-4H,5H,6H,7H-thieno[2,3-c]pyridin-6-yl]-N-[4-(1H-1,2,3-triazol-4-yl)phenyl]pyrimidin-4-amine]	
4290	10000	CN(C)CCn1c(C(=O)N2CCC(F)(F)C2)cc2ccc(-c3nccc(Nc4ccc(-c5cnc[nH]5)cc4)n3)cc21 [Example 13]	
2010	10000	O=C(c1cc2ccc(-c3nccc(Nc4ccc(-c5cn[nH]n5)cc4)n3)cc2o1)N1CC(F)(F)C1 [Example 19]	
3210	2.29	Cn1c(C(=O)N2CC(F)(F)C2)cc2ccc(-c3nccc(Nc4ccc(-c5cn[nH]c5)cc4)n3)cc21 [Comp. A, reference compound]	solubility kinetic (Kinetic solubility): < 1.9 µg/mL
281		CN(C)CCn1c(C(=O)N2CC(F)(F)C2)cc2ccc(-c3nccc(Nc4ccc(-c5cn[nH]n5)cc4)n3)cc21 [Example 15]	
2100		Cn1c(C(=O)N2CCC(F)(F)C2)cc2ccc(-c3nccc(Nc4ccc(-c5cnc[nH]5)cc4)n3)cc21 [Example 7]	
